Experiments:
soybean = test: Test C postemergence soybean; type: in vivo, Glycine max; details: 0 to 100 scale, 0 no effect, 100 complete control
Procedure, shortened: (§1)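 Visual injury scored 0-100 (100 = complete control) versus untreated plants roughly 14 to 21 days after treatment. Plants were grown to suitable size in 60:40 sandy loam and potting mix, then treated postemergence with surfactant-containing solvent formulations.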

barnyardgrass = test: Test C postemergence barnyardgrass; type: in vivo, Echinochloa crus-galli; details: 0 to 100 scale, 0 no effect, 100 complete control
Procedure, shortened: as §1

velvetleaf = test: Test C postemergence velvetleaf; type: in vivo, Abutilon theophrasti; details: 0 to 100 scale, 0 no effect, 100 complete control
Procedure, shortened: as §1

hairy beggarticks = test: Test C postemergence hairy beggarticks; type: in vivo, Bidens pilosa; details: 0 to 100 scale, 0 no effect, 100 complete control
Procedure, shortened: as §1

eastern black nightshade = test: Test C postemergence eastern black nightshade; type: in vivo, Solanum ptycanthum; details: 0 to 100 scale, 0 no effect, 100 complete control
Procedure, shortened: as §1

johnsongrass = test: Test C postemergence johnsongrass; type: in vivo, Sorghum halepense; details: 0 to 100 scale, 0 no effect, 100 complete control
Procedure, shortened: as §1

Green foxtail = test: Test D green foxtail; type: in vivo; details: Preemergence, 0 to 100 scale
Procedure, shortened: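 Scoring used a 0–100 visual injury scale, with 0 meaning no effect and 100 complete control, assessed 14–21 days after application alongside untreated pots. Preemergence treatments went onto sandy loam surfaces of separately potted seeds within a day of sowing.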

fall panicum = test: Test C postemergence fall panicum; type: in vivo, Panicum dichotomiflorum; details: 0 to 100 scale, 0 no effect, 100 complete control
Procedure, shortened: as §1

surinam grass = test: Test C postemergence surinam grass; type: in vivo, Brachiaria decumbens; details: 0 to 100 scale, 0 no effect, 100 complete control
Procedure, shortened: as §1

lambsquarters = test: Test C postemergence lambsquarters; type: in vivo, Chenopodium album; details: 0 to 100 scale, 0 no effect, 100 complete control
Procedure, shortened: as §1

purple nutsedge = test: Test C postemergence purple nutsedge; type: in vivo, Cyperus rotundus; details: 0 to 100 scale, 0 no effect, 100 complete control
Procedure, shortened: as §1

field bindweed = test: Test C postemergence field bindweed; type: in vivo, Convolvulus arvensis; details: 0 to 100 scale, 0 no effect, 100 complete control
Procedure, shortened: as §1

giant foxtail = test: Test C postemergence giant foxtail; type: in vivo, Setaria faberii; details: 0 to 100 scale, 0 no effect, 100 complete control
Procedure, shortened: as §1

common ragweed = test: Test C postemergence common ragweed; type: in vivo, Ambrosia elatior; details: 0 to 100 scale, 0 no effect, 100 complete control
Procedure, shortened: as §1

C=CCn1c(=O)on(C(=O)N(c2ccc(F)cc2)C(C)C)c1=O [Compound 146]
Plant response rating, Soybean (soybean; Rate 140 g/ha): 40
Plant response rating, Soybean (soybean; Rate 280 g/ha): 50
Plant response rating, Soybean (soybean; Rate 560 g/ha): 60
Plant response rating, Soybean (soybean; Rate 1120 g/ha): 85
Plant response rating, Barnyardgrass (barnyardgrass; Rate 140 g/ha): 60
Plant response rating, Barnyardgrass (barnyardgrass; Rate 280 g/ha): 80
Plant response rating, Barnyardgrass (barnyardgrass; Rate 560 g/ha): 85
Plant response rating, Barnyardgrass (barnyardgrass; Rate 1120 g/ha): 95
Plant response rating, Velvetleaf (velvetleaf; Rate 140 g/ha): 0
Plant response rating, Velvetleaf (velvetleaf; Rate 280 g/ha): 40
Plant response rating, Velvetleaf (velvetleaf; Rate 560 g/ha): 40
Plant response rating, Velvetleaf (velvetleaf; Rate 1120 g/ha): 60
Plant response rating H. beggarticks (hairy beggarticks; Rate 140 g/ha): 10
Plant response rating H. beggarticks (hairy beggarticks; Rate 280 g/ha): 20
Plant response rating H. beggarticks (hairy beggarticks; Rate 560 g/ha): 85
Plant response rating H. beggarticks (hairy beggarticks; Rate 1120 g/ha): 85
Plant response rating E. blacknightsh (eastern black nightshade; Rate 140 g/ha): 0
Plant response rating E. blacknightsh (eastern black nightshade; Rate 280 g/ha): 30
Plant response rating E. blacknightsh (eastern black nightshade; Rate 560 g/ha): 85
Plant response rating E. blacknightsh (eastern black nightshade; Rate 1120 g/ha): 85
Plant response rating Johnsongrass (johnsongrass; Rate 140 g/ha): 0
Plant response rating Johnsongrass (johnsongrass; Rate 280 g/ha): 30
Plant response rating Johnsongrass (johnsongrass; Rate 560 g/ha): 60
Plant response rating Johnsongrass (johnsongrass; Rate 1120 g/ha): 90
Plant response rating, Green foxtail (Green foxtail; Rate 250 g/ha): 100
Plant response rating, Green foxtail (Green foxtail; Rate 500 g/ha): 100
Plant response rating Fall panicum (fall panicum; Rate 140 g/ha): 50
Plant response rating Fall panicum (fall panicum; Rate 280 g/ha): 60
Plant response rating Fall panicum (fall panicum; Rate 560 g/ha): 90
Plant response rating Fall panicum (fall panicum; Rate 1120 g/ha): 90
Plant response rating Surinam grass (surinam grass; Rate 140 g/ha): 0
Plant response rating Surinam grass (surinam grass; Rate 280 g/ha): 5
Plant response rating Surinam grass (surinam grass; Rate 560 g/ha): 50
Plant response rating Surinam grass (surinam grass; Rate 1120 g/ha): 95
Plant response rating Lambsquarters (lambsquarters; Rate 140 g/ha): 0
Plant response rating Lambsquarters (lambsquarters; Rate 280 g/ha): 5
Plant response rating Lambsquarters (lambsquarters; Rate 560 g/ha): 10
Plant response rating Lambsquarters (lambsquarters; Rate 1120 g/ha): 50
Plant response rating, Purple nutsedge (purple nutsedge; Rate 140 g/ha): 0
Plant response rating, Purple nutsedge (purple nutsedge; Rate 280 g/ha): 0
Plant response rating, Purple nutsedge (purple nutsedge; Rate 560 g/ha): 0
Plant response rating, Purple nutsedge (purple nutsedge; Rate 1120 g/ha): 0
Plant response rating Field bindweed (field bindweed; Rate 140 g/ha): 0
Plant response rating Field bindweed (field bindweed; Rate 280 g/ha): 0
Plant response rating Field bindweed (field bindweed; Rate 560 g/ha): 0
Plant response rating Field bindweed (field bindweed; Rate 1120 g/ha): 0
Plant response rating, Giant foxtail (giant foxtail; Rate 140 g/ha): 0
Plant response rating, Giant foxtail (giant foxtail; Rate 280 g/ha): 40
Plant response rating, Giant foxtail (giant foxtail; Rate 560 g/ha): 80
Plant response rating, Giant foxtail (giant foxtail; Rate 1120 g/ha): 85
Plant response rating Common ragweed (common ragweed; Rate 140 g/ha): 10
Plant response rating Common ragweed (common ragweed; Rate 560 g/ha): 30
Plant response rating Common ragweed (common ragweed; Rate 1120 g/ha): 30

From patent US6737383B1, “Herbicidal oxadiazolidines” (priority 1999, dated 2004)
